Results taken from ChEMBL document CHEMBL5058645, “Data for DCP probe JNJ-6204” (2022).

How the values were obtained:
[1] = molecular target: 5'-AMP-activated protein kinase catalytic subunit alpha-2 (Homo sapiens, UniProt P54646); experiment: AMPKalpha2(h) Kinase panel; conditions: Compound concentration 1.0 uM, tested as the 2H-labelled form
[2] = molecular target: Serine/threonine-protein kinase B-raf (Homo sapiens) (UniProt P15056); experiment: B-Raf(h) Kinase panel; conditions: Compound concentration 1.0 uM, tested as the 2H-labelled form
[3] = molecular target: Cyclin-dependent kinase 3 (Homo sapiens) (UniProt Q00526); experiment: CDK3/cyclinE(h) Kinase panel; conditions: Compound concentration 1.0 uM, tested as the 2H-labelled form
[4] = molecular target: Cyclin-dependent kinase 13 (Homo sapiens) (UniProt Q14004); experiment: CDK13/cyclinK(h) Kinase panel; conditions: Compound concentration 1.0 uM, tested as the 2H-labelled form
[5] = molecular target: Cyclin-dependent kinase-like 3 (Homo sapiens) (UniProt Q8IVW4); experiment: CDKL3(h) Kinase panel; conditions: Compound concentration 1.0 uM, tested as the 2H-labelled form
[6] = molecular target: Casein kinase I isoform epsilon (Homo sapiens, UniProt P49674); experiment: CK1epsilon(h) Kinase panel; conditions: Compound concentration 1.0 uM, tested as the 2H-labelled form
[7] = molecular target: Mast/stem cell growth factor receptor Kit (Homo sapiens) (UniProt P10721); experiment: cKit(h) Kinase panel; conditions: Compound concentration 1.0 uM, tested as the 2H-labelled form
[8] = molecular target: Epithelial discoidin domain-containing receptor 1 (Homo sapiens) (UniProt Q08345); experiment: DDR1(h) Kinase panel; conditions: Compound concentration 1.0 uM, tested as the 2H-labelled form
[9] = molecular target: Ephrin type-A receptor 7 (Homo sapiens) (UniProt Q15375); experiment: EphA7(h) Kinase panel; conditions: Compound concentration 1.0 uM, tested as the 2H-labelled form
[10] = molecular target: Receptor tyrosine-protein kinase erbB-2 (Homo sapiens) (UniProt P04626); experiment: ErbB2(h) Kinase panel; conditions: Compound concentration 1.0 uM, tested as the 2H-labelled form
[11] = molecular target: Glycogen synthase kinase-3 beta (Homo sapiens) (UniProt P49841); experiment: GSK3β(h) Kinase panel; conditions: Compound concentration 1.0 uM, tested as the 2H-labelled form
[12] = molecular target: Tyrosine-protein kinase HCK (Homo sapiens) (UniProt P08631); experiment: Hck(h) Kinase panel; conditions: Compound concentration 1.0 uM, tested as the 2H-labelled form
[13] = molecular target: Homeodomain-interacting protein kinase 2 (Homo sapiens) (UniProt Q9H2X6); experiment: HIPK2(h) Kinase panel; conditions: Compound concentration 1.0 uM, tested as the 2H-labelled form
[14] = molecular target: Eukaryotic translation initiation factor 2-alpha kinase 1 (Homo sapiens) (UniProt Q9BQI3); experiment: HRI(h) Kinase panel; conditions: Compound concentration 1.0 uM, tested as the 2H-labelled form
[15] = molecular target: Insulin-like growth factor 1 receptor (Homo sapiens) (UniProt P08069); experiment: IGF-1R(h), activated Kinase panel; conditions: Compound concentration 1.0 uM, tested as the 2H-labelled form
[16] = molecular target: Tyrosine-protein kinase JAK2 (Homo sapiens) (UniProt O60674); experiment: JAK2(h) Kinase panel; conditions: Compound concentration 1.0 uM, tested as the 2H-labelled form
[17] = molecular target: Mitogen-activated protein kinase 8 (Homo sapiens) (UniProt P45983); experiment: JNK1alpha1(h) Kinase panel; conditions: Compound concentration 1.0 uM, tested as the 2H-labelled form
[18] = molecular target: LIM domain kinase 2 (Homo sapiens) (UniProt P53671); experiment: LIMK2(h) Kinase panel; conditions: Compound concentration 1.0 uM, tested as the 2H-labelled form
[19] = molecular target: Mitogen-activated protein kinase kinase kinase 2 (Homo sapiens) (UniProt Q9Y2U5); experiment: MEKK2(h) Kinase panel; conditions: Compound concentration 1.0 uM, tested as the 2H-labelled form
[20] = molecular target: Mitogen-activated protein kinase kinase kinase 3 (Homo sapiens) (UniProt Q99759); experiment: MEKK3(h) Kinase panel; conditions: Compound concentration 1.0 uM, tested as the 2H-labelled form
[21] = molecular target: Myosin light chain kinase (Homo sapiens) (UniProt Q32MK0); experiment: MLCK(h) Kinase panel; conditions: Compound concentration 1.0 uM, tested as the 2H-labelled form
[22] = molecular target: Serine/threonine-protein kinase MRCK gamma (Homo sapiens) (UniProt Q6DT37); experiment: MRCKgamma(h) Kinase panel; conditions: Compound concentration 1.0 uM, tested as the 2H-labelled form
[23] = molecular target: Serine/threonine-protein kinase Nek11 (Homo sapiens) (UniProt Q8NG66); experiment: NEK11(h) Kinase panel; conditions: Compound concentration 1.0 uM, tested as the 2H-labelled form
[24] = molecular target: Serine/threonine-protein kinase PAK 6 (Homo sapiens) (UniProt Q9NQU5); experiment: PAK6(h) Kinase panel; conditions: Compound concentration 1.0 uM, tested as the 2H-labelled form
[25] = molecular target: Eukaryotic translation initiation factor 2-alpha kinase 3 (Homo sapiens) (UniProt Q9NZJ5); experiment: PEK(h) Kinase panel; conditions: Compound concentration 1.0 uM, tested as the 2H-labelled form
[26] = molecular target: Serine/threonine-protein kinase pim-2 (Homo sapiens) (UniProt Q9P1W9); experiment: Pim-2(h) Kinase panel; conditions: Compound concentration 1.0 uM, tested as the 2H-labelled form
[27] = molecular target: cAMP-dependent protein kinase catalytic subunit alpha (Homo sapiens) (UniProt P17612); experiment: PKA(h) Kinase panel; conditions: Compound concentration 1.0 uM, tested as the 2H-labelled form
[28] = molecular target: Protein kinase C theta type (Homo sapiens) (UniProt Q04759); experiment: PKCtheta (h) Kinase panel; conditions: Compound concentration 1.0 uM, tested as the 2H-labelled form
[29] = molecular target: Ribosomal protein S6 kinase alpha-1 (Homo sapiens) (UniProt Q15418); experiment: Rsk1(h) Kinase panel; conditions: Compound concentration 1.0 uM, tested as the 2H-labelled form
[30] = molecular target: Serine/threonine-protein kinase SBK1 (Homo sapiens) (UniProt Q52WX2); experiment: SBK1(h) Kinase panel; conditions: Compound concentration 1.0 uM, tested as the 2H-labelled form
[31] = molecular target: Serine/threonine-protein kinase Sgk3 (Homo sapiens) (UniProt Q96BR1); experiment: SGK3(h) Kinase panel; conditions: Compound concentration 1.0 uM, tested as the 2H-labelled form
[32] = molecular target: Tyrosine-protein kinase Srms (Homo sapiens) (UniProt Q9H3Y6); experiment: SRMS(h) Kinase panel; conditions: Compound concentration 1.0 uM, tested as the 2H-labelled form
[33] = molecular target: Serine/threonine-protein kinase 32B (Homo sapiens) (UniProt Q9NY57); experiment: STK32B(h) Kinase panel; conditions: Compound concentration 1.0 uM, tested as the 2H-labelled form
[34] = molecular target: Serine/threonine-protein kinase 33 (Homo sapiens) (UniProt Q9BYT3); experiment: STK33(h) Kinase panel; conditions: Compound concentration 1.0 uM, tested as the 2H-labelled form
[35] = molecular target: STE20/SPS1-related proline-alanine-rich protein kinase (Homo sapiens) (UniProt Q9UEW8); experiment: STK39(h) Kinase panel; conditions: Compound concentration 1.0 uM, tested as the 2H-labelled form
[36] = molecular target: Mitogen-activated protein kinase kinase kinase 7 (Homo sapiens) (UniProt O43318); experiment: TAK1(h) Kinase panel; conditions: Compound concentration 1.0 uM, tested as the 2H-labelled form
[37] = molecular target: Serine/threonine-protein kinase TAO1 (Homo sapiens) (UniProt Q7L7X3); experiment: TAO1(h) Kinase panel; conditions: Compound concentration 1.0 uM, tested as the 2H-labelled form
[38] = molecular target: Serine/threonine-protein kinase TBK1 (Homo sapiens) (UniProt Q9UHD2); experiment: TBK1(h) Kinase panel; conditions: Compound concentration 1.0 uM, tested as the 2H-labelled form
[39] = molecular target: Angiopoietin-1 receptor (Homo sapiens) (UniProt Q02763); experiment: Tie2 (h) Kinase panel; conditions: Compound concentration 1.0 uM, tested as the 2H-labelled form
[40] = molecular target: Serine/threonine-protein kinase tousled-like 1 (Homo sapiens) (UniProt Q9UKI8); experiment: TLK1(h) Kinase panel; conditions: Compound concentration 1.0 uM, tested as the 2H-labelled form
[41] = molecular target: Testis-specific serine/threonine-protein kinase 4 (Homo sapiens) (UniProt Q6SA08); experiment: TSSK4(h) Kinase panel; conditions: Compound concentration 1.0 uM, tested as the 2H-labelled form
[42] = molecular target: Death-associated protein kinase 3 (Homo sapiens) (UniProt O43293); experiment: ZIPK(h) Kinase panel; conditions: Compound concentration 1.0 uM, tested as the 2H-labelled form
[43] = molecular target: Serine/threonine-protein kinase ATR (Homo sapiens) (UniProt Q13535); experiment: ATR/ATRIP(h) Kinase panel; conditions: Compound concentration 1.0 uM, tested as the 2H-labelled form
[44] = molecular target: D(4) dopamine receptor (Homo sapiens) (UniProt P21917); conditions: Compound concentration 10.0 uM, tested as the 2H-labelled form
[45] = molecular target: Histamine H1 receptor (Homo sapiens) (UniProt P35367); conditions: Compound concentration 10.0 uM, tested as the 2H-labelled form
[46] = molecular target: Histamine H2 receptor (Homo sapiens) (UniProt P25021); conditions: Compound concentration 10.0 uM, tested as the 2H-labelled form
[47] = molecular target: Muscarinic acetylcholine receptor M4 (Homo sapiens) (UniProt P08173); conditions: Compound concentration 10.0 uM, tested as the 2H-labelled form

Sequence of Epithelial discoidin domain-containing receptor 1 (Homo sapiens) (Q08345 whole entry, the tested form may be a part): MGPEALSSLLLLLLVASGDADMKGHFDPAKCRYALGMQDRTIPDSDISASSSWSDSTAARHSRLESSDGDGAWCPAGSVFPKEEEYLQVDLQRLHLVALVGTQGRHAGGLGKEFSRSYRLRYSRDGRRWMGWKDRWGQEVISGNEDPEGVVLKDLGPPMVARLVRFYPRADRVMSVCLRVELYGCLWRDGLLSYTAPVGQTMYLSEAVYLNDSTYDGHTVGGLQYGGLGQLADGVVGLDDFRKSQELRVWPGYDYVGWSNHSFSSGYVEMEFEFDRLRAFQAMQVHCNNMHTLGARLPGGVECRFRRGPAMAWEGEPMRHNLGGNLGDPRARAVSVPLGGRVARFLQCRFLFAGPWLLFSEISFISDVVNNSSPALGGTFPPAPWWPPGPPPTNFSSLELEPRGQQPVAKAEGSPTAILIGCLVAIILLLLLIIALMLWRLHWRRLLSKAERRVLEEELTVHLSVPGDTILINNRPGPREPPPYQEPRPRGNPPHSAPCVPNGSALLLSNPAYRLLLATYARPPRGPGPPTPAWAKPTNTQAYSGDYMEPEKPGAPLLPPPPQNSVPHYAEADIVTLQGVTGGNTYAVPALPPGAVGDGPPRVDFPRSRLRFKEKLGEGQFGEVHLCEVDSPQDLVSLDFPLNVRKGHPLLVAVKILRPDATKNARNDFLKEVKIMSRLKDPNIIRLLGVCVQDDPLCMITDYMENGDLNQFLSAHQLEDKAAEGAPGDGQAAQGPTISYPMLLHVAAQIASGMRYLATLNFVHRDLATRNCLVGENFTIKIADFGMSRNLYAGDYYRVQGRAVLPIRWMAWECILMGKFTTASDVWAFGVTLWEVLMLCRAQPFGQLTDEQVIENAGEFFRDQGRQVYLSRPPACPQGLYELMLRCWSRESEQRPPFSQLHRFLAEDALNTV
Sequence of Ephrin type-A receptor 7 (Homo sapiens) (Q15375 28-998 limits assumed): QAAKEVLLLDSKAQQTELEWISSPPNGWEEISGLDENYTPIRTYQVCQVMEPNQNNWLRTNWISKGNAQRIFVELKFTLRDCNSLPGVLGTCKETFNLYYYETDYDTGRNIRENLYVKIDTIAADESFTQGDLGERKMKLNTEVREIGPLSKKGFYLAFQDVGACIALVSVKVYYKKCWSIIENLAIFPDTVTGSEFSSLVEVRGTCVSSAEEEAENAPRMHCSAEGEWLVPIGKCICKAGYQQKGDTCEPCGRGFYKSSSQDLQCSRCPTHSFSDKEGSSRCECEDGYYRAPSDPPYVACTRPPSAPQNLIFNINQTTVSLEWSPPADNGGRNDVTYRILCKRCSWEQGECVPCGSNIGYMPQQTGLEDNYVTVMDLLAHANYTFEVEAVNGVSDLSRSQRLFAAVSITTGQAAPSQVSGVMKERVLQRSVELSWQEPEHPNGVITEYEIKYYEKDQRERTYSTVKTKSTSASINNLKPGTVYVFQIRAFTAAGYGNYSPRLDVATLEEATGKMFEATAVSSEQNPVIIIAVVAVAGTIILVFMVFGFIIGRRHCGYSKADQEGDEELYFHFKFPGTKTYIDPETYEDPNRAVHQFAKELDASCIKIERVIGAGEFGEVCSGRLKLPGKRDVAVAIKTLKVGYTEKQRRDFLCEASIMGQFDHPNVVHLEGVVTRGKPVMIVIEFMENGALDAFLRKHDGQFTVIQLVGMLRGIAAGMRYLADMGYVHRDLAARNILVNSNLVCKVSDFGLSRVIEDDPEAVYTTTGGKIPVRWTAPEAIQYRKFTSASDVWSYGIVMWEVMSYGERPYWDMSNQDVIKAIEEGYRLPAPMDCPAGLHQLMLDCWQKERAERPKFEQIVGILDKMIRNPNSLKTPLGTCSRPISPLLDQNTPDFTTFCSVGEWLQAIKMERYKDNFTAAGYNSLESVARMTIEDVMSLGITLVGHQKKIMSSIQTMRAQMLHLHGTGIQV
Sequence of Mitogen-activated protein kinase kinase kinase 7 (Homo sapiens) (O43318 whole entry): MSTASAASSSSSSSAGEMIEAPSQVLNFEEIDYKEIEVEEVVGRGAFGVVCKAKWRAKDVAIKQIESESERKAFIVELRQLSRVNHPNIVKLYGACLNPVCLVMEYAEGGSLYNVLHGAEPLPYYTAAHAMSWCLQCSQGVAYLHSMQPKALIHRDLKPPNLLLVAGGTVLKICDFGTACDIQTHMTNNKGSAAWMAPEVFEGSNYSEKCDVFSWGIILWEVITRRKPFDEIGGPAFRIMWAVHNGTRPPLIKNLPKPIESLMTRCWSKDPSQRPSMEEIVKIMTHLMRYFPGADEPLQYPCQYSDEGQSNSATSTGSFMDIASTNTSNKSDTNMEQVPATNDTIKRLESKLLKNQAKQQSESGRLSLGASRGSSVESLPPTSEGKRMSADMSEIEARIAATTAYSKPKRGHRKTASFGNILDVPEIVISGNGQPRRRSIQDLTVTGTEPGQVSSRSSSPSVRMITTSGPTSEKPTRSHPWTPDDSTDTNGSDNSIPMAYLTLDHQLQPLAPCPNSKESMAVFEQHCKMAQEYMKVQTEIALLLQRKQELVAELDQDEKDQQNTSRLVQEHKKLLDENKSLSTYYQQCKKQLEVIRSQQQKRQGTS
Sequence of Receptor tyrosine-protein kinase erbB-2 (Homo sapiens) (P04626 whole entry): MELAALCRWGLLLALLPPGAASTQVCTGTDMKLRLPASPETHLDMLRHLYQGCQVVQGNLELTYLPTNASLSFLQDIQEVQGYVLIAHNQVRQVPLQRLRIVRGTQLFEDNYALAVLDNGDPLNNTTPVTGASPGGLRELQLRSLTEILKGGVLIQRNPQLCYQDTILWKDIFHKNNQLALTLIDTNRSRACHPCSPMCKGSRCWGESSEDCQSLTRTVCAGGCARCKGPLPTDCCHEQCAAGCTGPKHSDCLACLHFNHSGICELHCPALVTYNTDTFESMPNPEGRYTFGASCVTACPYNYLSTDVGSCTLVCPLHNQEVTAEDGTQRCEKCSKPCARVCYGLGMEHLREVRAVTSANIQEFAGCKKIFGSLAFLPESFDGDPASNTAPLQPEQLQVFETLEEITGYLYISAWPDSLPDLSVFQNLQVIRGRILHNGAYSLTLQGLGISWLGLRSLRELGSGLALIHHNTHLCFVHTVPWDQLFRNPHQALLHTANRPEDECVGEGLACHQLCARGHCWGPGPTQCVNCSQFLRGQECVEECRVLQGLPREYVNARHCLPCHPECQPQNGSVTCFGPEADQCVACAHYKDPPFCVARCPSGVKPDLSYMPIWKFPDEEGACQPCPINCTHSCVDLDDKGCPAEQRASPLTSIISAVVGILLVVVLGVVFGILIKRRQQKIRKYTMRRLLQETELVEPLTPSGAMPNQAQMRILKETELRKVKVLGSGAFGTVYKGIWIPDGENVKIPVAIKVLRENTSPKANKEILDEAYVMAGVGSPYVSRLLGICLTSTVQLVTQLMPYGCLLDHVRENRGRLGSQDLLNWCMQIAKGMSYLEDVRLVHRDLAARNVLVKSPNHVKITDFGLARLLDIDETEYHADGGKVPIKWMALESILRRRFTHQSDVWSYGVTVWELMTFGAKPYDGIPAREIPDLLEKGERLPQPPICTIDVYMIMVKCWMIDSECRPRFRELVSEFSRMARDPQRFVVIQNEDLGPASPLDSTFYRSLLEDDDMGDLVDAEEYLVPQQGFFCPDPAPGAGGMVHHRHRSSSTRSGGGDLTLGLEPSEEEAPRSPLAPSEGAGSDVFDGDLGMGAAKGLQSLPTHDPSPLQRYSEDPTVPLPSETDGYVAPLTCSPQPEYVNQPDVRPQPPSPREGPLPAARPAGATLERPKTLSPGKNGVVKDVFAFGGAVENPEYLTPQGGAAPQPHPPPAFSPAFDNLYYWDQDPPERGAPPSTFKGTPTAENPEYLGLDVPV
Sequence of Angiopoietin-1 receptor (Homo sapiens) (Q02763 whole entry): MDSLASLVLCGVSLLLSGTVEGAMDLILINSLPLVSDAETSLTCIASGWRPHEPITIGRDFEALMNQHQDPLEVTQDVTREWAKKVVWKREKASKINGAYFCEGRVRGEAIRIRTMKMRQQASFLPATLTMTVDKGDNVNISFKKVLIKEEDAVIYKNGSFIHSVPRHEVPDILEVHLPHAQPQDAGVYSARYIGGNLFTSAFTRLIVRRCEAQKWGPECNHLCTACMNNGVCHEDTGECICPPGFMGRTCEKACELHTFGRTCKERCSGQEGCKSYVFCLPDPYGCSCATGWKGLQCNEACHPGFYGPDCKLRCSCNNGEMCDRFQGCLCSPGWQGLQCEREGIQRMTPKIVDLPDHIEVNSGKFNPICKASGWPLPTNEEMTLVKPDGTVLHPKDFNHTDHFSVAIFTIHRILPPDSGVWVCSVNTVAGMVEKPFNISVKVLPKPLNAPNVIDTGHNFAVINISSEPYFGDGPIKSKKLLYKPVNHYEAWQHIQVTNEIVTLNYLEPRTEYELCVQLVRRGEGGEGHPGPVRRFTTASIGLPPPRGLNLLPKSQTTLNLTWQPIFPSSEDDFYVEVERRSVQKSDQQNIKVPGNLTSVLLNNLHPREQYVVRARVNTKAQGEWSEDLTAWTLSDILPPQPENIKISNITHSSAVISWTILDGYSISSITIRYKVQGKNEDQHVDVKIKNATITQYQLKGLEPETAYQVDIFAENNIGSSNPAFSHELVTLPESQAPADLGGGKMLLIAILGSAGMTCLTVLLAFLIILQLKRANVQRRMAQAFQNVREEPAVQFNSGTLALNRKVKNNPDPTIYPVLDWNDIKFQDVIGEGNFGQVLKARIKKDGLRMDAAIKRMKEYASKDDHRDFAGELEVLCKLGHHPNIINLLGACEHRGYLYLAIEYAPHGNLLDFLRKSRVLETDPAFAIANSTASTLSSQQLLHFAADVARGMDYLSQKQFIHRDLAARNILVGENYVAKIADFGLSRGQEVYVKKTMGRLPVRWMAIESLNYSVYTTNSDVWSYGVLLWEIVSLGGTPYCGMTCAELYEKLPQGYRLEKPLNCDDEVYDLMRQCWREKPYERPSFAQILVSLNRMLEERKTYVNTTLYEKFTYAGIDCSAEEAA

inhibition [1]: 31% | inhibition [2]: 16% | inhibition [3]: -8% | inhibition [4]: 0% | inhibition [5]: -7% | inhibition [6]: 96% | inhibition [7]: -6% | inhibition [8]: 11% | inhibition [9]: 8% | inhibition [10]: 9% | inhibition [11]: 4% | inhibition [12]: 25% | inhibition [13]: 21% | inhibition [14]: -6% | inhibition [15]: 1% | inhibition [16]: 1% | inhibition [17]: -6% | inhibition [18]: -3% | inhibition [19]: 5% | inhibition [20]: -4% | inhibition [21]: 19% | inhibition [22]: 3% | inhibition [23]: 12% | inhibition [24]: 5% | inhibition [25]: 11% | inhibition [26]: -4% | inhibition [27]: 16% | inhibition [28]: 9% | inhibition [29]: 9% | inhibition [30]: -1% | inhibition [31]: 4% | inhibition [32]: 6% | inhibition [33]: 0% | inhibition [34]: 5% | inhibition [35]: 11% | inhibition [36]: -5% | inhibition [37]: -5% | inhibition [38]: 24% | inhibition [39]: 1% | inhibition [40]: 6% | inhibition [41]: 5% | inhibition [43]: 16% | inhibition [44]: -5.66% | inhibition [45]: -9.94% | inhibition [46]: -1.3% | inhibition [47]: 1.83%
Structure (SMILES): CC1(C)Cn2nc(-c3ccc(F)cn3)c(-c3ccnc4[nH]ncc34)c2CO1
inhibition [42]: 13%
